Results as given in publication PMC8790893 (Chemical Science, 2021).
Like-named read-outs stand apart in the source and are kept apart here.

Columns and labels:
prostate cancer = settings: cited from earlier work
[1] = system: DOCA-salt-induced organ damage; settings: rats; by blocking the activation of TH17 cells; cited from earlier work
AR [2] = settings: read-out: IC50 in AR transcriptional assay; cited from earlier work
AR [3] = settings: read-out: IC50 in AR competitive binding assay; cited from earlier work
sigma 1 receptor = settings: cited from earlier work
spinal cord white matter = assay: Histochemical analysis of spinal cords; assay type: in vivo; settings: EAE mice, 50 mg kg^−1 orally, LFB and H&E staining
TH17 cells = assay: Flow cytometry of spleen cells of EAE mice; assay type: in vivo; settings: CD4 and IL-17 dual-staining
RORγt-LBD-SRC2.2 [4] = target: T1, RORγt-LBD-SRC2.2 (Homo sapiens, UniProt P51449); assay: Drug affinity responsive target stability; assay type: binding; settings: 60 μM protein, 40 °C, 10 min, dose-dependent
T1 sequence (P51449 with tags, fused parts or gaps): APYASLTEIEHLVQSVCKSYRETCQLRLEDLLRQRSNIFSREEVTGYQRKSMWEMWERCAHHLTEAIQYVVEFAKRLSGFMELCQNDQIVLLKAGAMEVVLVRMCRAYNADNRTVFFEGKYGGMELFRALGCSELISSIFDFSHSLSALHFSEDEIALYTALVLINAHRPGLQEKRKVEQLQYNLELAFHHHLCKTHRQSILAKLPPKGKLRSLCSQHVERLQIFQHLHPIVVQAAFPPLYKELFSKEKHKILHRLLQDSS

RORγt-LBD [5] = target: T2, RORγt-LBD (Homo sapiens, UniProt P51449); assay: Intrinsic fluorescence-quenching based assay; assay type: binding; settings: RORγt-LBD 30 μM; compound 0-50 μM; excitation 280 nm
T2 sequence (P51449 262-518): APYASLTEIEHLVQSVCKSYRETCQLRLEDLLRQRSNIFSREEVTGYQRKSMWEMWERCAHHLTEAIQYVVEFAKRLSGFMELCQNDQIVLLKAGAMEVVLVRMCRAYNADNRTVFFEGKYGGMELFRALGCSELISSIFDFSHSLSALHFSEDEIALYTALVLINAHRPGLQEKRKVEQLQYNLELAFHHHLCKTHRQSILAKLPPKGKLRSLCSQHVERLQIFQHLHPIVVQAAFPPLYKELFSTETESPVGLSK

IL-17A = assay: ELISA of IL-17A in spinal cord and brain supernatant; assay type: in vivo; settings: EAE mice
RORγt-LBD (262-518) = target: T3, RORγt-LBD (262-518) (Homo sapiens, UniProt P51449); assay type: biochemical
T3 sequence (P51449 262-518): T2 sequence (P51449 262-518)

[6] = system: experimental autoimmune encephalomyelitis (EAE); assay: MOG35-55-induced EAE: clinical signs, disease onset, body weight; assay type: in vivo, female C57BL/6 mice; settings: EAE mice; for EAE induced body weight loss: 50 mg kg^−1 orally every day from day 12; for mean disease onset date: 50 mg kg^−1 orally every day from day 12, n = 8
[7] = system: blood–brain barrier (BBB); assay: In vivo imaging of brain inflammation; settings: EAE mice, day 9 post-administration
RORγt in HEK293T cells = target: T4, RORγt in HEK293T cells (Homo sapiens, UniProt P51449); assay: Cellular thermal shift assay; assay type: cell-based; settings: HEK293T cells exogenously expressing RORγt, 60 μM, 2 h
T4 sequence (P51449 1-497 isoform P51449-2): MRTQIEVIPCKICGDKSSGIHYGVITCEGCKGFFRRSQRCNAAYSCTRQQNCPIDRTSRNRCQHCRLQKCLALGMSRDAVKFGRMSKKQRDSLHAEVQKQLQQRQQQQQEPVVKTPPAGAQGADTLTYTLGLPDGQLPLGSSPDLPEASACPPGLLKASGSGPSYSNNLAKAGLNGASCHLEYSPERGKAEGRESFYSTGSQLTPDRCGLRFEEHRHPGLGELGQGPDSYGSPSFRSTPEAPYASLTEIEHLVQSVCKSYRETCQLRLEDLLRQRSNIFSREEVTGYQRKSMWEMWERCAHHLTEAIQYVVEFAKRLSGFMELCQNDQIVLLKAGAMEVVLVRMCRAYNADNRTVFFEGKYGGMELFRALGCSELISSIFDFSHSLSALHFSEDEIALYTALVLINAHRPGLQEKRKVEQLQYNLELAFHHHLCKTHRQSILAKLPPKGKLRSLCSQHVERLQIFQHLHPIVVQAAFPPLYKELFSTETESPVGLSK

RORγt-LBD [8] = target: T2, RORγt-LBD; assay: Isothermal titration calorimetry; assay type: binding
5-lipoxygenase = settings: read-out: IC50, 5-lipoxygenase; cited from earlier work
human RORγt = target: T5, human RORγt (Homo sapiens, UniProt P51449); assay: RORγt-GAL4 dual-luciferase reporter assay; assay type: cell-based
T5 sequence (P51449 97-516): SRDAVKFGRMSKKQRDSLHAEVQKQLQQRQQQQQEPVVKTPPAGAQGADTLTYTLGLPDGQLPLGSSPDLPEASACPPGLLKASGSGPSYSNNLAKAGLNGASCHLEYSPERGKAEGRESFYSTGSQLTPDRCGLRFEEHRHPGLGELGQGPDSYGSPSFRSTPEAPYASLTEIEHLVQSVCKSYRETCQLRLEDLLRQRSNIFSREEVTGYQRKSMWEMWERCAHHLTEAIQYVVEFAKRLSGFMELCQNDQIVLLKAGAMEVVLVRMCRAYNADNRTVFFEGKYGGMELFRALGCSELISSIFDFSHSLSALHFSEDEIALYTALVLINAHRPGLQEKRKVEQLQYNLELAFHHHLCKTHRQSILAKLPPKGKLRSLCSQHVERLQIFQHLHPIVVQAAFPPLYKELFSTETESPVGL

RORγt-LBD-SRC2.2 [9] = target: T1, RORγt-LBD-SRC2.2; assay: Co-crystallization and X-ray structure determination; settings: resolution 1.99 Å

CC(=O)S[C@@H]1CC2=CC(=O)CC[C@]2(C)[C@H]2CC[C@@]3(C)[C@@H](CC[C@@]34CCC(=O)O4)[C@H]12 [Spironolactone]
effect on the incidence of prostate cancer (prostate cancer): reduce the incidence of prostate cancer
effect on DOCA-salt-induced organ damage [1]: decrease DOCA-salt-induced organ damage

C[C@]12CC[C@H](O)CC1=CC[C@@H]1[C@@H]2CC[C@]2(C)C(c3cccnc3)=CC[C@@H]12 [abiraterone, Abiraterone]
IC50 (AR [2]): 9400 nM
IC50 (AR [3]): 7600 nM

CCN(CC)CCCC(C)Nc1ccnc2cc(Cl)ccc12 (centres unmarked) [chloroquine]
pKi, sigma 1 receptor (sigma 1 receptor): 7.1

CCN(CCO)CCCC(C)Nc1ccnc2cc(Cl)ccc12 (centres unmarked) [hydroxychloroquine]
pKi, sigma 1 receptor (sigma 1 receptor): 6.9

CC1(C)CC[C@]2(C(=O)O)CC[C@]3(C)C(=CC[C@@H]4[C@@]5(C)CCC(=O)C(C)(C)[C@@H]5CC[C@]43C)[C@@H]2C1 [oleanonic acid, Oleanonic Acid]
immune cell infiltrations in white matter of spinal cords (spinal cord white matter): reduced
frequency of pro-inflammatory TH17 cells in the spleen (TH17 cells): reduced frequency
proteolysis of RORγt-LBD-SRC2.2 by pronase E (RORγt-LBD-SRC2.2 [4]): clearly decreased
fluorescence quenching of RORγt-LBD (RORγt-LBD [5]): dose-dependently induced fluorescence quenching
IL-17A protein expression in brains and spinal cords (IL-17A): effectively reduced
IC50 (RORγt-LBD (262-518)): 280 nM
EAE induced body weight loss [6]: significantly reversed
mean disease onset date [6]: 15.3 ± 0.2 days
EAE-induced BBB disruption (brain BSA-Cy5.5 accumulation) [7]: remitted the EAE-induced BBB disruption obviously
Tm values of RORγt (CETSA) (RORγt in HEK293T cells): significantly increased
Kd (RORγt-LBD [8]): 1060 nM

Oc1cc(O)cc(/C=C/c2ccc(O)c(O)c2)c1 [piceatannol]
IC50 (5-lipoxygenase): 240 nM

Oc1ccc(/C=C/c2cc(O)cc(O)c2)cc1 [resveratrol]
IC50 (5-lipoxygenase): 4900 nM

C[C@H]1[C@H](C)CC[C@]2(C(=O)O)CC[C@]3(C)C(=CC[C@@H]4[C@@]5(C)CCC(=O)C(C)(C)[C@@H]5CC[C@]43C)[C@H]12 [ursonic acid, Ursonic Acid]
immune cell infiltrations in white matter of spinal cords (spinal cord white matter): reduced
frequency of pro-inflammatory TH17 cells in the spleen (TH17 cells): reduced frequency
proteolysis of RORγt-LBD-SRC2.2 by pronase E (RORγt-LBD-SRC2.2 [4]): clearly decreased
fluorescence quenching of RORγt-LBD (RORγt-LBD [5]): dose-dependently induced fluorescence quenching
IL-17A protein expression in brains and spinal cords (IL-17A): effectively reduced
IC50 (RORγt-LBD (262-518)): 10 nM
IC50 (human RORγt): 100 nM
EAE induced body weight loss [6]: significantly reversed
mean disease onset date [6]: 17.3 ± 0.5 days
EAE-induced BBB disruption (brain BSA-Cy5.5 accumulation) [7]: remitted the EAE-induced BBB disruption obviously
Tm values of RORγt (CETSA) (RORγt in HEK293T cells): significantly increased
binding site in the crystal structure (PDB code: 6J3N) (RORγt-LBD-SRC2.2 [9]): buried in the canonical orthosteric ligand pocket
Kd (RORγt-LBD [8]): 3040 nM
